Experiment [1] deals with T1, F508delCFTR (Homo sapiens, UniProt P13569, DEL508-508).
T1 construct: expressed in transfected cells; host or cells: CFBE41o- human lung-derived epithelial cells (CFBE41o-F508delCFTR-HRP), doxycycline-inducible
The experiment is described as follows: Cell Surface Expression-Horse Radish Peroxidase (CSE-HRP) assay, test compound without co-corrector.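 For Emax: percent of on-plate 2 µM positive control corrector response over DMSO.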 The class given is cell-based. The conditions noted are these: for Emax: maximum at any tested concentration, normalized to positive control, without co-corrector; for EC50: test compound without co-corrector. As for the experimental part:
(§1) Cell Surface Expression-Horse Radish Peroxidase (CSE-HRP) Assay
(§2) A cellular assay for measuring the F508delCFTR cell surface expression after correction with test compounds either without or with a co-corrector (2 μM of 3-[(2R,4R)-4-({[1-(2,2-difluoro-1,3-benzodioxol-5-yl)cyclopropyl]carbonyl}amino)-7-methoxy-3,4-dihydro-2H-chromen-2-yl]benzoic acid), was developed in human lung derived epithelial cell line (CFBE41o-) (Veit G et al, (2012) Mol Biol Cell. 23(21): 4188-4202). The development was achieved by expressing the F508delCFTR mutation along with a horseradish peroxidase (HRP) in the fourth exofacial loop, and then measuring the HRP activity using luminescence readout from these cells, CFBE41o-F508delCFTR-HRP, that were incubated overnight with the test corrector compounds, either without or with the co-corrector. For this primary assay, the CFBE41o-F508delCFTR-HRP cells were plated in 384-well plates (Greiner Bio-one; Cat 781080) at 4,000 cells/well along with 0.5 μg/mL doxycycline to induce the F508delCFTR-HRP expression and further incubated at 37° C., 5% CO2 for 72 hours. The test compounds were then added either without or with a co-corrector at the required concentrations and further incubated for 18-24 hours at 33° C. The highest concentration tested was 20 μM with an 8-point concentration response curve using a 3-fold dilution in both the test compound without or with the co-corrector. Three replicate plates were run to determine one EC50. All plates contained negative controls (dimethyl sulfoxide, DMSO) and positive control (2 μM of 3-[(2R,4R)-4-({[1-(2,2-difluoro-1,3-benzodioxol-5-yl)cyclopropyl]carbonyl}amino)-7-methoxy-3,4-dihydro-2H-chromen-2-yl]benzoic acid) as well as on-plate concentration response of the positive control. Post incubation, the plates were washed 5× times with Dulbecco's phosphate buffered saline (DPBS), followed by the addition of the HRP substrate, luminol (50 μL), and measuring the HRP activity using luminescence readout on EnVision® Multilabel Plate Reader (Perkin Elmer; product number 2104-0010). The raw counts from the experiment were analyzed using Accelrys® Assay Explorer v3.3.
(§3) Z′ greater than 0.5 was used as passing quality control criteria for the plates.
(§4) 1−[3*SDPositive Control+3*SDNegative Control/Absolute (MeanPositive Control−MeanNegative Control)]
(§5) wherein “SD” is standard deviation.
(§6) The % activity measured at each of the 8 test concentrations of the test compound added either without or with a co-corrector (2 μM of 3-[(2R,4R)-4-({[1-(2,2-difluoro-1,3-benzodioxol-5-yl)cyclopropyl]carbonyl}amino)-7-methoxy-3,4-dihydro-2H-chromen-2-yl]benzoic acid) was normalized to the on-plate positive control using the following formulae:
% activity (Test compound without co-corrector)=[(test compound without co-corrector response−DMSO response)/(positive control response−DMSO response)]*100%
(§7) The maximum % activity achieved for the test compound either without or with a co-corrector at any tested concentration is presented in Table 1 along with the respective EC50's calculated using the following general sigmoidal curve with variable Hill slope equation (described as Model 42 in the Accelrys® Assay Explorer v3.3 software):
(§8) General sigmoidal curve with concentration, response, top, bottom, EC50 and Hill slope. This model describes a sigmoidal curve with an adjustable baseline, a. The equation can be used to fit curves where response is either increasing or decreasing with respect to the independent variable, “x”.
“x” is a concentration of drug under test. “y” is the response. “a” is the maximum response, and “d” is the minimum response “c” is the inflection point (EC50) for the curve. That is, “y” is halfway between the lower and upper asymptotes when x=c. “b” is the slope-factor or Hill coefficient. The sign of b is positive when the response increases with increasing dose and is negative when the response decreases with increasing dose (inhibition). The data is presented with the qualifiers shown below: […]

Experiment [2] concerns the target T1, F508delCFTR. The experiment is described as follows: Cell Surface Expression-Horse Radish Peroxidase (CSE-HRP) assay, test compound with co-corrector.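 For Maximum % activity (with co-corrector): percent of 2 µM positive control corrector over DMSO; co-corrector is that same compound.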 The class given is cell-based. The conditions noted are these: with 2 μM co-corrector; for Maximum % activity (with co-corrector): maximum at any tested concentration, normalized to positive control. How it is done: as §1, §2, §3, §4, §5, §6
activity (Test compound with co-corrector)=[(test compound with co-corrector response−DMSO response)/(positive control response−DMSO response)]*100
as §7, §8
“x” is a concentration of drug under test. “y” is the response. “a” is the maximum response, and “d” is the minimum response “c” is the inflection point (EC50) for the curve. That is, “y” is halfway between the lower and upper asymptotes when x=c. “b” is the slope-factor or Hill coefficient. The sign of b is positive when the response increases with increasing dose and is negative when the response decreases with increasing dose (inhibition).

Where only a bound is given, the exact number is not on record here.

The values that follow come from patent US20180244611A1, “Modulators of the Cystic Fibrosis Transmembrane Conductance Regulator Protein and Methods of Use” (AbbVie S.à.r.l., priority 2017, published 2018).

T1 sequence (P13569 with tags, fused parts or gaps DEL508-508): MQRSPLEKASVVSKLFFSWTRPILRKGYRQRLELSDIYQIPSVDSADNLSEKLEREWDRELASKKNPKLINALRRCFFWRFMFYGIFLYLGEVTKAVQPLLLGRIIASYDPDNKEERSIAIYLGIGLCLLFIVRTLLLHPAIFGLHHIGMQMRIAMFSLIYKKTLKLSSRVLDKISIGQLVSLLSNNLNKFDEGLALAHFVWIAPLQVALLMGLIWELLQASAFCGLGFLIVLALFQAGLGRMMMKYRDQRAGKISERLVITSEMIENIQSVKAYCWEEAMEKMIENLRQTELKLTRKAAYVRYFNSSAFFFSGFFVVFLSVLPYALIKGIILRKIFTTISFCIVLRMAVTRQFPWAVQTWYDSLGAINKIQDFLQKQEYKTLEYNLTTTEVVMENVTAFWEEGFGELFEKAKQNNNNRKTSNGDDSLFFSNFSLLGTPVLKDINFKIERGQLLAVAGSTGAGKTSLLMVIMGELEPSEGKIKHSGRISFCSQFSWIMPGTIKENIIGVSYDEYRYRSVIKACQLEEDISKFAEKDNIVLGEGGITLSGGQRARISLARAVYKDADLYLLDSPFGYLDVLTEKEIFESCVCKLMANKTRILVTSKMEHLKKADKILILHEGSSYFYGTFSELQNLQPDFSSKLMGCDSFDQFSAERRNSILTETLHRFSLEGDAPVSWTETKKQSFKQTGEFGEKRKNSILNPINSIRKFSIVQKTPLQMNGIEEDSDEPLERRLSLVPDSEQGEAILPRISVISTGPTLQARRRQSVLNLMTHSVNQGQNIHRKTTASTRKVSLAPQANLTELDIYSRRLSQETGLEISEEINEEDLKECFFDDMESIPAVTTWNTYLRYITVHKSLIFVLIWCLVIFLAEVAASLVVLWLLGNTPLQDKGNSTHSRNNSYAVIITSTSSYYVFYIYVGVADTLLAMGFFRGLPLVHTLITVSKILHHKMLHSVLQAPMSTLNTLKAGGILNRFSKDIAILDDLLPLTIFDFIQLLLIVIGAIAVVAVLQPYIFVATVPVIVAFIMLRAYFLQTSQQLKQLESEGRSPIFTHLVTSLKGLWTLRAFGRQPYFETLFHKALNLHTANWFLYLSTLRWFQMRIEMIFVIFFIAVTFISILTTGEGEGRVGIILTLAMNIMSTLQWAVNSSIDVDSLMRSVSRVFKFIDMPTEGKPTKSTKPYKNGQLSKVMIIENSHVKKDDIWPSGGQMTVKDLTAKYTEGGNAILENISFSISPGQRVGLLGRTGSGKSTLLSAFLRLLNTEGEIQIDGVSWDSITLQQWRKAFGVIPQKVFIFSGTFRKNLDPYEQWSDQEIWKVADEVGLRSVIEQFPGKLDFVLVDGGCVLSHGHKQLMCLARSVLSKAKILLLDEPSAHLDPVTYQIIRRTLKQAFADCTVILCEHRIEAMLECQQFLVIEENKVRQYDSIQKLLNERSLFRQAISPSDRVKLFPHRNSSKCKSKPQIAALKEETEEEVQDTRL

A word on the Emax: it is the maximal effect, on the per cent scale that the assay sets. One may read the EC50 as the midpoint of the concentration-response curve. Regarding `COc1ccc2c(c1)[C@](C)(C(=O)NS(=O)(=O)c1cccc3ccccc13)CC2` [Example I-23, (1R)-6-methoxy-1-methyl-N-(naphthalene-1-sulfonyl)-2,3-dihydro-1H-indene-1-carboxamide], on F508delCFTR [1], the Emax is ≥ 150% and the EC50 was in the range of 3 to 10 µM. At F508delCFTR [2], the “Maximum % activity (with co-corrector)” value is “+++ (≥350)” and the half-maximal effective concentration (EC50) is < 3 µM.
The like results for `O=C(NS(=O)(=O)c1cccc2ccccc12)C1CCCc2c1ccc1c2OCO1` (stereo not shown) [Example I-24, N-(naphthalene-1-sulfonyl)-6,7,8,9-tetrahydro-2H-naphtho[1,2-d][1,3]dioxole-6-carboxamide] were, in that order, ≥ 150%, 3 to 10 µM, “+++ (≥350)” and < 3 µM.
The like results for `C[C@@]1(C(=O)NS(=O)(=O)c2cccc3ccccc23)CCc2cccc(Cl)c21` [Example I-27, (1R)-7-chloro-1-methyl-N-(naphthalene-1-sulfonyl)-2,3-dihydro-1H-indene-1-carboxamide] were, in that order, ≥ 150%, < 3 µM, “+++ (≥350)” and < 3 µM.
The like results for `CCC1(C(=O)NS(=O)(=O)c2cccc3ccccc23)CCc2c(Br)ccc(OC)c21` (stereo not shown) [Example I-28, 4-bromo-1-ethyl-7-methoxy-N-(naphthalene-1-sulfonyl)-2,3-dihydro-1H-indene-1-carboxamide] were, in that order, ≥ 150%, < 3 µM, “+++ (≥350)” and < 3 µM.
Take `O=C(NS(=O)(=O)c1cccc2ccccc12)C1(CC2CC2)CCc2c(Cl)cccc21` (stereo not shown) [Example I-29, 4-chloro-1-(cyclopropylmethyl)-N-(naphthalene-1-sulfonyl)-2,3-dihydro-1H-indene-1-carboxamide]: at F508delCFTR [1], the Emax is ≥ 150% and the EC50 was < 3 µM. Also, at F508delCFTR [2], the “Maximum % activity (with co-corrector)” value was “+++ (≥350)” and the EC50 was < 3 µM.
For `CCC1(C(=O)NS(=O)(=O)c2cccc3cccc(O)c23)CCc2c(Cl)cccc21` (stereo not shown) [Example I-31, 4-chloro-1-ethyl-N-(8-hydroxynaphthalene-1-sulfonyl)-2,3-dihydro-1H-indene-1-carboxamide], at F508delCFTR [1], the Emax was in the range of 50 to 150% and the EC50 is < 3 µM. Moreover, at F508delCFTR [2], the “Maximum % activity (with co-corrector)” value is reported as “+++ (≥350)” and the EC50 is < 3 µM.
As to `CCOc1ccc(Br)c2c1CCCC2C(=O)NS(=O)(=O)c1cccc2ccccc12` (stereo not shown) [Example I-32, 8-bromo-5-ethoxy-N-(naphthalene-1-sulfonyl)-1,2,3,4-tetrahydronaphthalene-1-carboxamide], at F508delCFTR [1], the maximal effect (Emax) is ≥ 150% and the EC50 was < 3 µM. Moreover, on F508delCFTR [2], the “Maximum % activity (with co-corrector)” value is “+++ (≥350)” and the EC50 is < 3 µM.
With `COc1ccc(C2CCC2)c2c1CCCC2C(=O)NS(=O)(=O)c1cccc2ccccc12` (stereo not shown) [Example I-33, 8-cyclobutyl-5-methoxy-N-(naphthalene-1-sulfonyl)-1,2,3,4-tetrahydronaphthalene-1-carboxamide], at F508delCFTR [1], the Emax is ≥ 150% and the EC50 is < 3 µM. On F508delCFTR [2], the “Maximum % activity (with co-corrector)” value is on record as “+++ (≥350)” and the EC50 was < 3 µM.
With `CCC1(C(=O)NS(=O)(=O)c2cccc3ccccc23)CCCc2cccc(Cl)c21` (stereo not shown) [Example I-34, 8-chloro-1-ethyl-N-(naphthalene-1-sulfonyl)-1,2,3,4-tetrahydronaphthalene-1-carboxamide], at F508delCFTR [1], the Emax was ≥ 150% and the EC50 was < 3 µM. At F508delCFTR [2], the “Maximum % activity (with co-corrector)” value was “+++ (≥350)” and the EC50 was < 3 µM.
With `O=C(NS(=O)(=O)c1cccc2ccccc12)C1(Cc2cccc(C(F)(F)F)n2)CCc2c(Cl)cccc21` (stereo not shown) [Example I-35, 4-chloro-N-(naphthalene-1-sulfonyl)-1-{[6-(trifluoromethyl)pyridin-2-yl]methyl}-2,3-dihydro-1H-indene-1-carboxamide], at F508delCFTR [1], the maximum response (Emax) is ≥ 150% and the EC50 was < 3 µM. Moreover, at F508delCFTR [2], the “Maximum % activity (with co-corrector)” value is “+++ (≥350)” and the EC50 was < 3 µM.
On F508delCFTR [1], `O=C(NS(=O)(=O)c1cccc2ccccc12)C1(Cc2ccc(Cl)nc2)CCc2c(Cl)cccc21` (stereo not shown) [Example I-36, 4-chloro-1-[(6-chloropyridin-3-yl)methyl]-N-(naphthalene-1-sulfonyl)-2,3-dihydro-1H-indene-1-carboxamide] registered a maximum response (Emax) of 50 to 150% and an EC50 of 3 to 10 µM. Further, at F508delCFTR [2], the “Maximum % activity (with co-corrector)” value is “+++ (≥350)” and the EC50 is < 3 µM.
For `COc1cccc(CC2(C(=O)NS(=O)(=O)c3cccc4ccccc34)CCc3c(Cl)cccc32)n1` (stereo not shown) [Example I-37, 4-chloro-1-[(6-methoxypyridin-2-yl)methyl]-N-(naphthalene-1-sulfonyl)-2,3-dihydro-1H-indene-1-carboxamide], in that order: 50 to 150%, 3 to 10 µM, “+++ (≥350)” and 3 to 10 µM.
The like results for `CC1(C(=O)NS(=O)(=O)c2cccc3ccccc23)CCc2c(Cl)cccc21` (stereo not shown) [Example I-38, 4-chloro-1-methyl-N-(naphthalene-1-sulfonyl)-2,3-dihydro-1H-indene-1-carboxamide] were, in that order, ≥ 150%, 3 to 10 µM, “+++ (≥350)” and < 3 µM.
The like results for `CCC1(C(=O)NS(=O)(=O)c2cccc3c(Cl)cccc23)CCc2c(Cl)cccc21` (stereo not shown) [Example I-39, 4-chloro-N-(5-chloronaphthalene-1-sulfonyl)-1-ethyl-2,3-dihydro-1H-indene-1-carboxamide] were, in that order, 50 to 150%, < 3 µM, “+++ (≥350)” and < 3 µM.
Regarding `CC(C)Oc1ccc(Br)c2c1CCCC2C(=O)NS(=O)(=O)c1cccc2ccccc12` (stereo not shown) [Example I-40, 8-bromo-N-(naphthalene-1-sulfonyl)-5-[(propan-2-yl)oxy]-1,2,3,4-tetrahydronaphthalene-1-carboxamide], at F508delCFTR [1], the Emax is ≥ 150% and the EC50 was < 3 µM. Moreover, at F508delCFTR [2], the “Maximum % activity (with co-corrector)” value is recorded as “+++ (≥350)” and the EC50 was < 3 µM.
For the molecule `COc1ccc(Br)c2c1C(C(=O)NS(=O)(=O)c1cccc3ccccc13)CCC2` (stereo not shown) [Example I-41, 5-bromo-8-methoxy-N-(naphthalene-1-sulfonyl)-1,2,3,4-tetrahydronaphthalene-1-carboxamide], on F508delCFTR [1], the Emax was ≥ 150% and the EC50 is < 3 µM. Further, at F508delCFTR [2], the “Maximum % activity (with co-corrector)” value is “+++ (≥350)” and the EC50 is < 3 µM.
